ChEMBL document CHEMBL1201862, “PubChem BioAssay data set” (2004)
The source made the active and inactive calls.

Assays:
[1] = target: T1, Endoribonuclease toxin MazF (Escherichia coli K-12, UniProt P0AE70); experiment: MazF toxin RNase activators, dose response, biochemical, fluorescence, single-stranded RNA substrate, uHTS hits (AID 588481); assay type: functional
[2] = target: T1, Endoribonuclease toxin MazF; experiment: fluorescent RNA oligo signal without MazF, dose response, counter-screen for MazEF activator project, biochemical, fluorescence, single-stranded RNase substrate (AID 588502); assay type: functional
[3] = target: T2, Corticotropin-releasing factor receptor 2/Corticotropin-releasing factor-binding protein (Homo sapiens, UniProt P24387+Q13324); experiment: activators of CRF receptor 2 with binding protein – uHTS hits, confirmation (AID 602473); assay type: functional; details: read-out: EC50_Mean
T2 sequence (Q13324 whole entry): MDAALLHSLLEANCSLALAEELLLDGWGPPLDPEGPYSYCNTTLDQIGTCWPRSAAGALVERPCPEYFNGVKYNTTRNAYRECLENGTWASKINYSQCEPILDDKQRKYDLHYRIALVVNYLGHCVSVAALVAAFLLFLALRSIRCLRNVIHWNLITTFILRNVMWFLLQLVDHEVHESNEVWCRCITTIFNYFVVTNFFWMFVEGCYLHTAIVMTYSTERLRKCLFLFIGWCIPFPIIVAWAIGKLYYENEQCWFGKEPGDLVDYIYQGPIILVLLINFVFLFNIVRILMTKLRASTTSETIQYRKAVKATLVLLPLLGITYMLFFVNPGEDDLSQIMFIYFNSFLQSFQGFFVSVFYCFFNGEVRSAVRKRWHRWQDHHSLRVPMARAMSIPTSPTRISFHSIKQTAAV
T2 sequence (P24387 whole entry): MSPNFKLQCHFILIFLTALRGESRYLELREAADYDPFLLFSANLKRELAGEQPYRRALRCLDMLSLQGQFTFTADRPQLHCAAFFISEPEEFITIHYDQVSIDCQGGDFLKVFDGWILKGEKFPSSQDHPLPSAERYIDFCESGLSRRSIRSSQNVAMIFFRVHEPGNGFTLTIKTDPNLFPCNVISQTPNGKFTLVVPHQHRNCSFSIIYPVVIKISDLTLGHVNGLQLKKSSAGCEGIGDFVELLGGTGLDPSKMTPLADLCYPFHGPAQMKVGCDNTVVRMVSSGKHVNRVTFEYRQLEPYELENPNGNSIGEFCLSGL

[4] = tested on: INS1; experiment: protection from cytokine-driven beta-cell apoptosis, dose response, JC-1 fluorescence, INS-1E, dry powder, set 2 (AID 488867); assay type: functional, cell-based; details: Rattus norvegicus
[5] = tested on: INS1; experiment: protection from cytokine-induced mitochondrial depolarization, dose response, cell-based, INS-1E, JC-1 fluorescence ratio, dry powder (AID 488931); assay type: functional; details: Rattus norvegicus
[6] = target: G-protein coupled receptor 55 (Homo sapiens, UniProt Q9Y2T6); experiment: GPR55 agonists via beta-arrestin recruitment, primary screen, imaging, U2OS cells, beta-arrestin-GFP redistribution (AID 1961); assay type: functional
G-protein coupled receptor 55, sequence (Q9Y2T6 whole entry): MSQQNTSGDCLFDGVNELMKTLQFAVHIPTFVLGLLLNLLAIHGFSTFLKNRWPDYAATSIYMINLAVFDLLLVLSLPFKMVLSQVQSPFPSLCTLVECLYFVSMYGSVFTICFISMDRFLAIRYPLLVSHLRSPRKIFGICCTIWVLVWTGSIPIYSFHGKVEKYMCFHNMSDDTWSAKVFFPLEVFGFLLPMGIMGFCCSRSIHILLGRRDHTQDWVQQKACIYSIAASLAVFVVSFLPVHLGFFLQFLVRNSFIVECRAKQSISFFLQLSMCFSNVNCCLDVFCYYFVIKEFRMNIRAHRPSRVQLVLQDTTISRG

[7] = target: T3, CAAX prenyl protease 2 (Saccharomyces cerevisiae S288c, UniProt Q03530); assay type: biochemical
T3 sequence (Q03530 whole entry): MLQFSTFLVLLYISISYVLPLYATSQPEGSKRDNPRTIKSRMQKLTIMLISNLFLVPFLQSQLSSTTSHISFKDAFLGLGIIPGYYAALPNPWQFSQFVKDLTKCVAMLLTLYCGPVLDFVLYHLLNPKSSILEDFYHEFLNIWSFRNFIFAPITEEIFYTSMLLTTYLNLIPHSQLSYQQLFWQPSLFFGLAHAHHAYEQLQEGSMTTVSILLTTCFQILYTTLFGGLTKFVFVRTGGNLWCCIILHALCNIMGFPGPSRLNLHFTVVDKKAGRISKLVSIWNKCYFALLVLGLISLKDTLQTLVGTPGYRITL

[8] = target: CAAX prenyl protease 1 (Saccharomyces cerevisiae S288c, UniProt P47154); experiment: Ste24 protease inhibitors, dose response, biochemical, S. cerevisiae, plate reader, cherry-pick (AID 488815)
CAAX prenyl protease 1, sequence (P47154 whole entry): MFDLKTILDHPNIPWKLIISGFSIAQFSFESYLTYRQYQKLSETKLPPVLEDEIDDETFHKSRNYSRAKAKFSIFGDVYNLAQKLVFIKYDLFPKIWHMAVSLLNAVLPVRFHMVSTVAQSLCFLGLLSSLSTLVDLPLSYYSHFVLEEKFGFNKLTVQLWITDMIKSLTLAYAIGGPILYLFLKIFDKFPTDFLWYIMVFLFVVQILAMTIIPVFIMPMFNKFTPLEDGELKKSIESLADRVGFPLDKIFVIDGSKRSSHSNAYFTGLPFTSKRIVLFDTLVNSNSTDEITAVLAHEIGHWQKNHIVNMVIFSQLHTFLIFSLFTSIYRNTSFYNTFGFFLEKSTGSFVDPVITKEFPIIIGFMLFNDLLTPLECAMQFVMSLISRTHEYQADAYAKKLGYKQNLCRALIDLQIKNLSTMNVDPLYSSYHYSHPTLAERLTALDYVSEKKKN

[9] = tested on: INS1; experiment: beta cell apoptosis inhibitors, cytokine rescue, dose response, luminescence, retest (AID 449756); assay type: functional, cell-based; details: Rattus norvegicus;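 note: cell death triggered by IL-1 beta plus TNF-alpha plus IFN-gamma mixture; protective hits raise ATP signal compared with cytokine alone wells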
[10] = Shn3 3'UTR reporter inhibitors, dose response, cell-based, Clone20 osteoblasts, firefly luciferase, cherry-picked (AID 624132); assay type: functional;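 note: firefly luciferase luminescence from reporter carrying the Shn3 3'UTR in osteoblasts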
[11] = HepG2 cell cytotoxicity, dose response, cytotoxicity control for Shn3 inhibitor project, CellTiter-Glo, cherry-picked (AID 624134); assay type: functional, cell-based
[12] = control 3'UTR Renilla luciferase suppression, dose response, counter-screen for Shn3 inhibitor project, cell-based, Clone20-Shn3RL, cherry-picked (AID 624133); assay type: functional
[13] = target: T4, Tyrosine-protein phosphatase non-receptor type 7 (Homo sapiens, UniProt P35236); assay type: functional
T4 sequence (P35236 whole entry): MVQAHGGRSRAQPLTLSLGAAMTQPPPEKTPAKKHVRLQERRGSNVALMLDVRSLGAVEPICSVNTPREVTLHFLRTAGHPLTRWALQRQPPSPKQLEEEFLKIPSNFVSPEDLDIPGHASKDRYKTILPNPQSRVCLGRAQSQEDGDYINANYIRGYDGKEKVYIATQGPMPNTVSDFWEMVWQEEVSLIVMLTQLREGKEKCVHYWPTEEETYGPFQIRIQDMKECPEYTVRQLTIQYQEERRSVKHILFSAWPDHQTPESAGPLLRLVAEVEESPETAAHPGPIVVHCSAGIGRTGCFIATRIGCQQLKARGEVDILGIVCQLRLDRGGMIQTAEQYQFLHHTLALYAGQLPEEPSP

[14] = target: Glyceraldehyde-3-phosphate dehydrogenase (Homo sapiens, UniProt P04406)
Glyceraldehyde-3-phosphate dehydrogenase, sequence (P04406 whole entry): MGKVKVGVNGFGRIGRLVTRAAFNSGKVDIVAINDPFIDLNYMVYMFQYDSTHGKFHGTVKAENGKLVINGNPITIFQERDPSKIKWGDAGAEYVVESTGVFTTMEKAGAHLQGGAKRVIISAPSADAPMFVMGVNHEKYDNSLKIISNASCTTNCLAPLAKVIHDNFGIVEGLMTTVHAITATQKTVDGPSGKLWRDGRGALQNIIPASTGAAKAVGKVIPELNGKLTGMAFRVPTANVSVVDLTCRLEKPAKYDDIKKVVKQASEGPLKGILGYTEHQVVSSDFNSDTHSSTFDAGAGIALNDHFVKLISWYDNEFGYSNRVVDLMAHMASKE

[15] = target: T5, Dual specificity protein phosphatase 6 (Rattus norvegicus, UniProt Q64346)
T5 sequence (Q64346 whole entry): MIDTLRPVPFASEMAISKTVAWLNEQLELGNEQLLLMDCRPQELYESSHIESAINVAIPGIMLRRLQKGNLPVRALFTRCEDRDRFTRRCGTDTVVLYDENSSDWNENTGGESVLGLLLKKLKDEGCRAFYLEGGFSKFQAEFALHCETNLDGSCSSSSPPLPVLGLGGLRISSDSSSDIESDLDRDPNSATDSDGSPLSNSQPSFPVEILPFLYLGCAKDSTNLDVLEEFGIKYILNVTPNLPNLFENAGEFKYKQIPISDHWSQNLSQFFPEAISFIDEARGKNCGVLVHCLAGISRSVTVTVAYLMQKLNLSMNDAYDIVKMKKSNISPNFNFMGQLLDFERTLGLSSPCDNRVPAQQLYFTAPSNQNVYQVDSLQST

[16] = target: T5, Dual specificity protein phosphatase 6; assay type: functional
[17] = target: Dual specificity protein phosphatase 3 (Homo sapiens, UniProt P51452); experiment: SAR VHR1 Fluorescent Assay for In Vitro dose response studies Set 3. [Related pubchem assays (depositor defined):AID1654, AID1661, AID1878]; assay type: functional
Dual specificity protein phosphatase 3, sequence (P51452 whole entry): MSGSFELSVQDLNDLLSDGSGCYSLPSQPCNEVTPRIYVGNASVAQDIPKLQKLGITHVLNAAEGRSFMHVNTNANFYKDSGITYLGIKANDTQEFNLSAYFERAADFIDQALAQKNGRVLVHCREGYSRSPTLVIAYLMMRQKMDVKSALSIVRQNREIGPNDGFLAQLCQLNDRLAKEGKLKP

T1 sequence (P0AE70 whole entry): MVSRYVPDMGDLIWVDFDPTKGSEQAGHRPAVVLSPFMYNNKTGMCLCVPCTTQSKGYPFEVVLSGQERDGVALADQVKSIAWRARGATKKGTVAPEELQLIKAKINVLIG

CC1CCN(c2ccc3c(c2)S(=O)(=O)c2cccc(C(=O)NCc4ccc(F)cc4)c2C3=O)CC1
EC50 [1]: > 99 µM (inactive)
EC50 [2]: 38 µM (inactive)
EC50 [3]: 5.16 µM (active)

C[C@@H]1CN([C@@H](C)CO)C(=O)c2cccc(NC(=O)Nc3cccc4ccccc34)c2O[C@H]1CN(C)S(=O)(=O)c1ccc2c(n1)N(C)CCO2
AC50 [4]: 69.4 µM (active)
AC50 [5]: 61.1 µM (active)

COc1ccc(C2/C=C\CN(C(=O)c3ccc(C)cc3)[C@H](Cc3ccccc3)C(=O)N2Cc2ccc(F)cc2)cc1 (some centres not stated)
EC50 [6]: > 32 µM (inactive)
AC50 [7]: 35.1 µM (active)
AC50 [8]: 37.3 µM (active)
AC50 [9]: 7.14 µM (active)
AC50 [10]: 0.772 µM (active)
AC50 [11]: > 70 µM (inactive)
AC50 [12]: 18.1 µM (active)

COCCCNc1nc(=O)n(-c2ccc(C)cc2)c(=O)[nH]1
IC50 [13]: > 100 µM (not active)
IC50 [14]: > 100 µM (not active)
IC50 [15]: > 100 µM (inactive)
IC50 [16]: > 100 µM (inactive)

COc1cccc2sc(NC(=O)c3cccc(C(F)(F)F)c3)nc12
IC50 [17]: > 66 µM (inactive)
